The text below walks through data of US20200245620A1 (priority 2018, published 2020).

In this assay the test system is Fusarium graminearum. Kind of assay: microbe, parasite or virus in culture. In kind it is cell-based. Particulars: for EC50: Fusarium graminearum.

Converted amounts (≈) assume the structure as drawn.

`OCC1=C[C@H](N[C@H]2C[C@H](CO)[C@@H](O[C@@H]3O[C@H](CO)[C@@H](O)[C@H](O)[C@H]3O)[C@H](O)[C@H]2O)[C@H](O)[C@@H](O)[C@@H]1O` [Jinggangmycin]: where the note is “sensitive and fungicide-resistant strains, alone or mixed with ipconazole”, the “inhibitory activity on the growth in vitro” value is on record as “almost does not have inhibitory activity”.

Turning to `CC(C)C1CCC(Cc2ccc(Cl)cc2)C1(O)Cn1cncn1` (stereo not drawn) [Ipconazole], a half-maximal effect (F.g carbendazim-resistant strains) (EC50) was put at 0.946 µg/mL (≈ 2.83 µM) and it took 0.101 µg/mL (≈ 0.303 µM) to reach a half-maximal effect (F.g phenamacril-resistant strains) (EC50).
